In brackets after ≈: the same amount, converted by molar mass.
Columns and labels:
[1] = system: S. epidermidis NRS101 biofilm; assay: bacterial CFU inside mature biofilm post-treatment; assay type: cell-based, Staphylococcus epidermidis; conditions: 24 hours
Procedure: (§1) Compounds 1, 2, and vancomycin were examined for their ability to eradicate mature staphylococcal biofilm using the microtiter dish biofilm formation assay. S. epidermidis NRS101 and S. aureus ATCC 6538 were selected as the test organisms given their ability to form strong adherent biofilm. An overnight culture of bacteria was diluted (1:100 in TSB + 1% glucose) and transferred to a 96-well plate. The plate was incubated for 24 hours at 37 °C in order to form adherent biofilm on the surface of the plate wells. The medium containing the bacterial suspension was removed and the biofilm was washed with sterile PBS to remove planktonic cells. Compounds 1, 2, or vancomycin (from 128 to 1 μg/mL), in triplicate, in TSB were incubated with the biofilm for 24 hours at 37 °C.
(§2) For enumeration of viable CFU inside the biofilm, compounds were removed, wells were washed with sterile PBS, and treated with 0.25% Trypsin-2.21 mM EDTA solution as described elsewhere. The solution containing cells was transferred to a 96-well plate, serially diluted in PBS, and plated on TSA. Plates were incubated at 37 °C for 19 hours before viable CFU were counted. Data are presented as average log10(CFU/mL) of bacteria present in the biofilm post-treatment.

[2] = system: human keratinocyte cell line; design: method as in PMID 28249208; conditions: human keratinocytes; ref [21]; cited from earlier work
[3] = system: S. aureus ATCC 6538 biofilm; assay: biofilm mass disruption, crystal violet reporter assay; assay type: cell-based, Staphylococcus aureus; conditions: all concentrations tested
Procedure: as §1
Compounds were subsequently removed. The biofilm was washed with PBS and then stained with 1% (w/v) crystal violet for 40 minutes. The stain was removed and wells were washed with sterile PBS. Wells were next decolorized using 95% ethanol. The optical density of each well at 595 nm was measured using a microplate reader.

S. epidermidis NRS101 = assay: broth microdilution MIC; assay type: cell-based; conditions: Staphylococcus epidermidis; S. epidermidis NRS101, biofilm-forming strain; read-out: MIC
Procedure: (§3) The broth microdilution assay was employed to determine the MIC of compounds 1, 2, and vancomycin against five MRSA strains, four VRSA strains, one highly mupirocin-resistant S. aureus strain, one biofilm-forming S. aureus (ATCC 6538) strain, and one biofilm-forming methicillin-resistant S. epidermidis strain, as per the guidelines of the Clinical and Laboratory Standards Institute (CLSI). […] The MBC was determined by plating an aliquot (5 μL) from wells with no growth onto TSA plates. Plates were incubated at 37 °C for 19 hours before recording the MBC (concentration where no growth was observed on TSA plates).

S. aureus ATCC 6538 = assay: broth microdilution MIC; assay type: cell-based; conditions: Staphylococcus aureus, ATCC6538; S. aureus ATCC 6538, biofilm-forming strain; read-out: MIC
Procedure: as §3

[4] = system: S. aureus ATCC 6538 biofilm; assay: bacterial CFU inside mature biofilm post-treatment; assay type: cell-based, Staphylococcus aureus; conditions: 24 hours
Procedure: as §1, §2

MRSA NRS484 (USA1100) = assay: broth microdilution MIC/MBC; assay type: cell-based; conditions: Staphylococcus aureus, MRSA NRS484 (USA1100); for MBC: read-out: MBC; for MIC: read-out: MIC
Procedure: as §3

VRS11a = assay: broth microdilution MIC/MBC; assay type: cell-based; conditions: Staphylococcus aureus, VRS11a, vancomycin-resistant S. aureus; for MBC: read-out: MBC; for MIC: read-out: MIC
Procedure: as §3

VRS4 = assay: broth microdilution MIC/MBC; assay type: cell-based; conditions: Staphylococcus aureus, VRS4, vancomycin-resistant S. aureus; for MBC: read-out: MBC; for MIC: read-out: MIC
Procedure: as §3

MRSA NRS384 (USA300) = assay: broth microdilution MIC/MBC; assay type: cell-based; conditions: Staphylococcus aureus, MRSA NRS384 (USA300); for MBC: read-out: MBC; for MIC: read-out: MIC
Procedure: as §3

S. aureus NRS107 = assay: broth microdilution MIC/MBC; assay type: cell-based; conditions: Staphylococcus aureus, S. aureus NRS107; for MBC: read-out: MBC; for MIC: read-out: MIC
Procedure: as §3

MRSA NRS387 (USA800) = assay: broth microdilution MIC/MBC; assay type: cell-based; conditions: Staphylococcus aureus, MRSA NRS387 (USA800); for MBC: read-out: MBC; for MIC: read-out: MIC
Procedure: as §3

MRSA NRS123 (USA400) = assay: broth microdilution MIC/MBC; assay type: cell-based; conditions: Staphylococcus aureus, MRSA NRS123 (USA400); for MBC: read-out: MBC; for MIC: read-out: MIC
Procedure: as §3

MRSA NRS483 (USA1000) = assay: broth microdilution MIC/MBC; assay type: cell-based; conditions: Staphylococcus aureus, MRSA NRS483 (USA1000); for MBC: read-out: MBC; for MIC: read-out: MIC
Procedure: as §3

VRS7 = assay: broth microdilution MIC/MBC; assay type: cell-based; conditions: Staphylococcus aureus, VRS7, vancomycin-resistant S. aureus; for MBC: read-out: MBC; for MIC: read-out: MIC
Procedure: as §3

VRS10 = assay: broth microdilution MIC/MBC; assay type: cell-based; conditions: Staphylococcus aureus, VRS10, vancomycin-resistant S. aureus; for MBC: read-out: MBC; for MIC: read-out: MIC
Procedure: as §3

[5] = system: human epithelial colorectal (Caco-2) cell line; assay: MTS cytotoxicity assay; assay type: cell-based; conditions: Caco-2, MTS assay, highest concentration tested
Procedure: Compounds 1 and 2 were assayed (at concentrations of 16 μg/mL, 32 μg/mL, 64 µg/mL, and 128 μg/mL) against a human epithelial colorectal (Caco-2) cell line (American Type Culture Collection, ATCC HTB-37) using the MTS assay. Cells were cultured in DMEM supplemented with penicillin-streptomycin, nonessential amino acids (1%), and FBS (10%), at 37 °C with CO2 (5%). The cells were incubated with compounds (in triplicate) or DMSO (negative control) in a 96-well tissue culture-treated plate at 37 °C with CO2 (5%) for two hours. The MTS assay reagent (Promega, Madison, WI, USA) was subsequently added to each well and plates were incubated for four hours at 37 °C with CO2 (5%). The quantity of viable cells (at OD490) after treatment was expressed as a percentage of the viability of DMSO-treated control cells (average of triplicate wells ± standard deviation). The toxicity data was analyzed via a two-way ANOVA, with post hoc Dunnet’s multiple comparisons test (n = 3, P < 0.05), utilizing GraphPad Prism 6.0 (GraphPad Software, La Jolla, CA).

[6] = design: method as in PMID 28249208; conditions: human liver microsomes; ref [21]; cited from earlier work

Compound: C/C(=N\NC(=N)N)c1ccc(NC(=O)Nc2ccc(OCCC(C)C)cc2)cc1 [compound 1]
- reduction in bacterial CFU within S. epidermidis biofilm ([1]; 64 μg/mL): 1.0 log10
- reduction in bacterial CFU within S. epidermidis biofilm ([1]; 128 μg/mL): 2.84 log10
- reduction in bacterial CFU within S. epidermidis biofilm ([1]; 8, 16, and 32 μg/mL, vs untreated control): no reduction
- non-toxic up to (concentration) [2]: 32 µg/mL
- change in optical density of S. aureus biofilm (biofilm mass) [3]: no change
- MIC (S. epidermidis NRS101): 2 µg/mL (≈ 5.04 µM)
- MIC (S. aureus ATCC 6538): 4 µg/mL (≈ 10.1 µM)
- reduction in bacterial CFU within S. aureus biofilm ([4]; 64 μg/mL): 0.9 log10
- reduction in bacterial CFU within S. aureus biofilm ([4]; 128 μg/mL): 3.0 log10
- MBC (MRSA NRS484 (USA1100)): 8 µg/mL (≈ 20.2 µM)
- MIC (MRSA NRS484 (USA1100)): 8 µg/mL (≈ 20.2 µM)
- MBC (VRS11a): 4 µg/mL (≈ 10.1 µM)
- MIC (VRS11a): 4 µg/mL (≈ 10.1 µM)
- MBC (VRS4): 8 µg/mL (≈ 20.2 µM)
- MIC (VRS4): 8 µg/mL (≈ 20.2 µM)
- MBC (MRSA NRS384 (USA300)): 4 µg/mL (≈ 10.1 µM)
- MIC (MRSA NRS384 (USA300)): 4 µg/mL (≈ 10.1 µM)
- MBC (S. aureus NRS107): 4 µg/mL (≈ 10.1 µM)
- MIC (S. aureus NRS107): 4 µg/mL (≈ 10.1 µM)
- MBC (MRSA NRS387 (USA800)): 4 µg/mL (≈ 10.1 µM)
- MIC (MRSA NRS387 (USA800)): 4 µg/mL (≈ 10.1 µM)
- MBC (MRSA NRS123 (USA400)): 4 µg/mL (≈ 10.1 µM)
- MIC (MRSA NRS123 (USA400)): 4 µg/mL (≈ 10.1 µM)
- MBC (MRSA NRS483 (USA1000)): 4 µg/mL (≈ 10.1 µM)
- MIC (MRSA NRS483 (USA1000)): 4 µg/mL (≈ 10.1 µM)
- MBC (VRS7): 8 µg/mL (≈ 20.2 µM)
- MIC (VRS7): 8 µg/mL (≈ 20.2 µM)
- MBC (VRS10): 4 µg/mL (≈ 10.1 µM)
- MIC (VRS10): 4 µg/mL (≈ 10.1 µM)
- non-toxic up to (concentration) [5]: ≥ 128 µg/mL
- intrinsic half-life [6]: exceeded four hours

Compound: C/C(=N\NC(=N)N)c1ccc(NC(=O)Nc2ccc(OC3CCCCCC3)cc2)cc1 [compound 2]
- reduction in bacterial CFU within S. epidermidis biofilm ([1]; all concentrations tested (from 8 to 128 μg/mL)): unable to reduce
- non-toxic up to (concentration) [2]: 64 µg/mL
- change in optical density of S. aureus biofilm (biofilm mass) [3]: no change
- MIC (S. epidermidis NRS101): 4 µg/mL (≈ 9.47 µM)
- MIC (S. aureus ATCC 6538): 8 µg/mL (≈ 18.9 µM)
- reduction in bacterial CFU within S. aureus biofilm ([4]; 64 μg/mL): 0.8 log10
- reduction in bacterial CFU within S. aureus biofilm ([4]; 128 μg/mL): 1.76 log10
- MBC (MRSA NRS484 (USA1100)): 16 µg/mL (≈ 37.9 µM)
- MIC (MRSA NRS484 (USA1100)): 16 µg/mL (≈ 37.9 µM)
- MBC (VRS11a): 8 µg/mL (≈ 18.9 µM)
- MIC (VRS11a): 8 µg/mL (≈ 18.9 µM)
- MBC (VRS4): 16 µg/mL (≈ 37.9 µM)
- MIC (VRS4): 16 µg/mL (≈ 37.9 µM)
- MBC (MRSA NRS384 (USA300)): 16 µg/mL (≈ 37.9 µM)
- MIC (MRSA NRS384 (USA300)): 8 µg/mL (≈ 18.9 µM)
- MBC (S. aureus NRS107): 8 µg/mL (≈ 18.9 µM)
- MIC (S. aureus NRS107): 8 µg/mL (≈ 18.9 µM)
- MBC (MRSA NRS387 (USA800)): 16 µg/mL (≈ 37.9 µM)
- MIC (MRSA NRS387 (USA800)): 8 µg/mL (≈ 18.9 µM)
- MBC (MRSA NRS123 (USA400)): 8 µg/mL (≈ 18.9 µM)
- MIC (MRSA NRS123 (USA400)): 8 µg/mL (≈ 18.9 µM)
- MBC (MRSA NRS483 (USA1000)): 16 µg/mL (≈ 37.9 µM)
- MIC (MRSA NRS483 (USA1000)): 16 µg/mL (≈ 37.9 µM)
- MBC (VRS7): 16 µg/mL (≈ 37.9 µM)
- MIC (VRS7): 16 µg/mL (≈ 37.9 µM)
- MBC (VRS10): 8 µg/mL (≈ 18.9 µM)
- MIC (VRS10): 4 µg/mL (≈ 9.47 µM)
- non-toxic up to (concentration) [5]: ≥ 128 µg/mL
- intrinsic half-life [6]: exceeded four hours

From PMC5552351, “Bacteriological profiling of diphenylureas as a novel class of antibiotics against methicillin-resistant Staphylococcus aureus” (PLoS ONE, 2017)
